We go through 5 compounds from patent US20230302164A1, “PSMA-Targeting Ligands With Optimal Properties for Imaging and Therapy” (Wisconsin Alumni Research Foundation, priority 2021, published 2023).

Series [1] concerns the target T1, PSMA (LNCap cells, PSMA positive) (Homo sapiens, UniProt Q04609).
T1 construct: endogenous in cells; host or cells: LNCap cells (human prostate adenocarcinoma)
The experiment in a line: Competitive binding assay in LNCap cells using 86Y as a radioligand. The conditions noted are these: 86Y radioligand, read-out: half inhibition concentration (IC50). The procedure: Competitive binding assays were performed in LNCap cells (PSMA positive, androgen-sensitive human prostate adenocarcinoma cells) using ^86Y as a radioligand.

Series [2] has as its system PC3-PIP tumor xenografts. In words: Ex vivo biodistribution in PC3-PIP mice after last imaging timepoint. Particulars: 24 h p.i. (617, C12) or 72 h p.i. (PhC18). The method, then:
Next, an ex vivo biodistribution analysis was performed following the last imaging timepoint at 24 h p.i. for PC3-PIP mice injected intravenously with ^86Y-PSMA-617 and ^86Y-PSMA-C12 and at 72 h p.i. in mice administered ^86Y-PSMA-PhC18.

Series [3] can be described thus: PET/CT imaging in normal ICR mice, blood kinetics by region of interest analysis of the heart. The class given is in vivo. The conditions noted are these: i.v., PET days 0-2. The method, then: Compounds PSMA-C12 and PSMA-PhC18 were dissolved in water at a concentration of 1-2 mg/mL. Radiolabeling with Y-86 was carried out in NaOAc buffer (pH 5.0) at 90-95 C for 30 min to 1 h at constant stirring. Ten micrograms of compound per mCi of ^86Y were employed, affording quantitative radiochemical yields. Purification of the compounds was carried out using reverse-phase solid-phase chromatography and purified compounds were redissolved in physiological injection media (e.g., normal saline). Quality control was conducted using reverse-phase HPLC.
In PET/CT imaging studies, 100-250 µCi of ^86Y-PSMA-C12 and ^86Y-PSMA-PhC18 were intravenously administered into normal ICR mice, and mice were scanned on days 0, 1, and 2 after injection. The results are shown in FIG. 1 (for ^86Y-PSMA-C12) and in FIG. 2 (for ^86Y-PSMA-PhC18). Blood circulation kinetics were analyzed through a region of interest analysis of the heart.
To our knowledge, ^86Y-PSMA-PhC18 is the only PSMA inhibitor showing long circulation without albumin binding, and that has predominantly hepatic excretion. These features have clear advantages over other previously known PSMA ligands for prostate cancer theranostics.

Series [4] deals with PC3-PIP tumor xenografts. In words: PET/CT imaging and region of interest analysis in nude mice bearing PC3-PIP tumor xenografts. The class given is in vivo. The method, then: Next, PET/CT imaging studies were performed in nude mice bearing PC3-PIP tumor xenografts ([…] tumors) injected intravenously with ^86Y-PSMA-617, ^86Y-PSMA-C12, or ^86Y-PSMA-PhC18 and scanned up to 72 h post injection.
A region of interest analysis was then performed on the PC3-PIP tumor xenografts injected intravenously with ^86Y-PSMA-617, ^86Y-PSMA-C12, or ^86Y-PSMA-PhC18 and scanned up to 72 h post injection.

Series [5] relates to LNCap tumor xenografts with lower PSMA expression. The experiment in a line: PET/CT imaging and region of interest analysis in nude mice bearing LNCap tumor xenografts. It counts as in vivo. The procedure:
Next, PET/CT imaging studies were performed in nude mice bearing LNCap tumor xenografts with lower PSMA expression. The mice were injected intravenously with ^86Y-PSMA-617, ^86Y-PSMA-C12, or ^86Y-PSMA-PhC18 and scanned up to 72 h p.i. […] Finally, a region of interest analysis was then performed on the PET/CT images in nude mice bearing LNCap tumor xenografts injected intravenously with ^86Y-PSMA-617, ^86Y-PSMA-C12, or ^86Y-PSMA-PhC18 and scanned up to 72 h post injection.

The nature of series [6]: Partition (logP) and distribution (logD) coefficients, hydrophobicity comparison. It counts as physicochemical. The conditions noted are these: for LogD: distribution coefficient; for LogD / LogP: 177Lu-labeled compound; for LogP: partition coefficient.
Setting [7] is: nude mice, i.v., scanned up to 72 h.
Setting [8] is: nude mice, region of interest analysis.

Read-outs that look alike come from different tables or passages of the source.

T1 sequence (Q04609 whole entry): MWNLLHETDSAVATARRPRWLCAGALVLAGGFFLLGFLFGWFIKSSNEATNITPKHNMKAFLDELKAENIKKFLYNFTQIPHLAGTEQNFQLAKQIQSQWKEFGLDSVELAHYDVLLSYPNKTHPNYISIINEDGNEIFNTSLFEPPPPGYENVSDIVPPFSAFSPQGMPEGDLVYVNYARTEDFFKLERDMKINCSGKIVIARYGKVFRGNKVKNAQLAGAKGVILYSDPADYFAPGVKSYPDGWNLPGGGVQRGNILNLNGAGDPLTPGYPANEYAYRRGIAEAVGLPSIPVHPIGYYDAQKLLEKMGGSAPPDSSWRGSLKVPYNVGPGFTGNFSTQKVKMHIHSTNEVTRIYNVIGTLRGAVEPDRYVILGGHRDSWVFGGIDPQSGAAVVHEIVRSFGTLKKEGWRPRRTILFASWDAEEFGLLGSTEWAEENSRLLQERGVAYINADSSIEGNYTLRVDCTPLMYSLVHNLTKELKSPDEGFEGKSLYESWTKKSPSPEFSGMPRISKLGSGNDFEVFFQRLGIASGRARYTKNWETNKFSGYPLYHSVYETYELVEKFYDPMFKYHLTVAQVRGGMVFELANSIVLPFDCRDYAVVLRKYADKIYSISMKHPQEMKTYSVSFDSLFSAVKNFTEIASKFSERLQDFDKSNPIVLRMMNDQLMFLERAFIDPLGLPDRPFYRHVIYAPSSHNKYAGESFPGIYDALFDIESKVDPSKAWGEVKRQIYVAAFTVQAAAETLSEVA

With `O=C(O)CCC(NC(=O)NC(CCCCNC(=O)CCCCCCCCCCCNC(=O)CN1CCN(CC(=O)O)CCN(CC(=O)O)CCN(CC(=O)O)CC1)C(=O)O)C(=O)O` (stereo not drawn) [^86Y-PSMA-C12, metal not drawn], the IC50 in series [1] is 58.2 nM. In addition, the “tissue with highest uptake in ex vivo biodistribution” value in series [2] is reported as “the tumor shows the highest uptake of all analysed tissues”. For the same compound, in series [3], the “blood circulation” value is “short circulation half-life” and the “excretion route” value was “renal excretion”.
Regarding `O=C(O)CCC(NC(=O)NC(CCCCNC(=O)CCCCCCCCCCCCCCCCCc1ccc(NC(=O)CN2CCN(CC(=O)O)CCN(CC(=O)O)CCN(CC(=O)O)CC2)cc1)C(=O)O)C(=O)O` (stereo not drawn) [^86Y-PSMA-PhC18, metal not drawn], the “tumor uptake and retention versus 86Y-PSMA-617 and 86Y-PSMA-C12” value in series [4] (nude mice, i.v., PET/CT) is “significantly improved”. Also, the “blood circulation” value in series [4] (setting [7]) is given as “prolonged blood circulation”; in series [5] (setting [7]), “prolonged blood circulation”; in series [3], “prolonged circulation”. Also, the “renal clearance” value in series [4] (setting [7]) and in series [5] (setting [7]) was “minimal renal clearance” each time. Moreover, the blood circulation half-life in series [4] (setting [8]) is 11.7 h; in series [5] (setting [8]), 15.1 h. This compound also displayed a blood circulation half-life (unit not given) in series [4] (nude mice, region of interest analysis, FIG. 5 legend) of 11.7 h. Also, in series [4] (post injection), the “time at which tumor uptake plateaus” value stood at 24 h. Moreover, the “clearance from normal organs” value in series [5] (nude mice) is recorded as “Steady clearance from normal organs”. The “tumor uptake and retention versus 86Y-PSMA-617” value in series [5] (nude mice, PET/CT) was “significantly improved”. Also, the “time at which tumor uptake plateaued” value in series [5] (p.i.) amounted to 24 h. Further, the “tumor uptake at 72 h p.i. relative to 86Y-PSMA-617 and 86Y-PSMA-C12 at 24 h p.i.” value in series [5] (region of interest analysis) is reported as “five times higher”. Also, the “tissue with highest uptake in ex vivo biodistribution” value in series [2] was “the tumor shows the highest uptake of all analysed tissues”. For the same compound, the “excretion route” value in series [3] is recorded as “hepatobiliary excretion”.
Usually LogD stands for the decadic logarithm of the distribution of all forms, ionised or not, between an organic phase and buffer at a given pH. Broadly, the LogP is a log measure of how a compound divides between an organic and an aqueous phase. On to `O=C([O-])CN1CCN(CC(=O)[O-])CCN(CC(=O)NCC2CCC(C(=O)N[C@@H](Cc3ccc4ccccc4c3)C(=O)NCCCC[C@H](NC(=O)N[C@@H](CCC(=O)O)C(=O)O)C(=O)O)CC2)CCN(CC(=O)[O-])CC1.[177Lu+3]` (stereo partly drawn) [^177Lu-PSMA-617, reference compound], for which, in series [6], the pH-dependent lipophilicity (LogD) is -3.2 and the log partition coefficient (LogP) was -2.8.
Take `O=C(O)CCC(NC(=O)NC(CCCCNC(=O)CCCCCCCCCCCNC(=O)CN1CCN(CC(=O)O)CCN(CC(=O)O)CCN(CC(=O)O)CC1)C(=O)O)C(=O)O` (stereo not drawn) [^177Lu-PSMA-C12, metal not drawn]: the pH-dependent lipophilicity (LogD) in series [6] (read-out: LogD) was -2.9. For the same compound, the LogP in series [6] (read-out: LogP) is -2.6.
Take `O=C(O)CCC(NC(=O)NC(CCCCNC(=O)CCCCCCCCCCCCCCCCCc1ccc(NC(=O)CN2CCN(CC(=O)O)CCN(CC(=O)O)CCN(CC(=O)O)CC2)cc1)C(=O)O)C(=O)O` (stereo not drawn) [^177Lu-PSMA-PhC18, metal not drawn]: the “hydrophobicity comparison” value in series [6] (177Lu-labeled compounds compared with each other) is “two orders of magnitude more hydrophobic”. Besides, in series [6], the pH-dependent lipophilicity (LogD) is reported as -1.2 and the log partition coefficient (LogP) is given as -0.8.
